Legend:
Assay in all cases: Test A pre-/postemergence greenhouse herbicide test, visual injury rating 0-100
Type in all cases: in vivo
[1] = system: pigweed (Amaranthus retroflexus)
Source text: (§1) Seeds of plant species selected from barnyardgrass (Echinochloa crus-galli), large (Lg) crabgrass (Digitaria sanguinalis), giant foxtail (Setaria faberii), morningglory (Ipomoea spp.), pigweed (Amaranthus retroflexus), velvetleaf (Abutilon theophrasti), wheat (Triticum aestivum), and corn (Zea mays) were planted into a blend of loam soil and sand and treated preemergence with a directed soil spray using test chemicals formulated in a non-phytotoxic solvent mixture which included a surfactant. At the same time these species were also treated with postemergence applications of test chemicals formulated in the same manner. Plants ranged in height from 2 to 10 cm and were in the one- to two-leaf stage for the postemergence treatment. Treated plants and untreated controls were maintained in a greenhouse for approximately 10 days, after which time all treated plants were compared to untreated controls and visually evaluated for injury. Plant response ratings, summarized in Table A, are based on a 0 to 100 scale where 0 is no effect and 100 is complete control. A dash (-) response means no test result.

corn (Zea mays) = system: corn (Zea mays)
Source text: as §1

[2] = system: velvetleaf (Abutilon theophrasti)
Source text: as §1

[3] = system: giant foxtail (Setaria faberii)
Source text: as §1

[4] = system: barnyardgrass (Echinochloa crus-galli)
Source text: as §1

[5] = system: large (Lg) crabgrass (Digitaria sanguinalis)
Source text: as §1

[6] = system: morningglory (Ipomoea spp.)
Source text: as §1

[7] = system: wheat (Triticum aestivum)
Source text: as §1

N#CN=C(c1ccccc1)c1c[nH]nc1-c1cc(Cl)cc(Cl)c1 [Compound 52]
Plant response rating (0 to 100 scale), Pigweed ([1]; Postemergence, 1000 g ai/ha): 90 | Plant response rating (0 to 100 scale), Pigweed ([1]; Preemergence, 1000 g ai/ha): 50 | Plant response rating (0 to 100 scale), Corn (corn (Zea mays); Postemergence, 1000 g ai/ha): 0 | Plant response rating (0 to 100 scale), Corn (corn (Zea mays); Preemergence, 1000 g ai/ha): 0 | Plant response rating (0 to 100 scale), Velvetleaf ([2]; Postemergence, 1000 g ai/ha): 100 | Plant response rating (0 to 100 scale), Velvetleaf ([2]; Preemergence, 1000 g ai/ha): 60 | Plant response rating (0 to 100 scale), Foxtail, Giant ([3]; Postemergence, 1000 g ai/ha): 0 | Plant response rating (0 to 100 scale), Foxtail, Giant ([3]; Preemergence, 1000 g ai/ha): 0 | Plant response rating (0 to 100 scale), Barnyardgrass ([4]; Postemergence, 1000 g ai/ha): 0 | Plant response rating (0 to 100 scale), Barnyardgrass ([4]; Preemergence, 1000 g ai/ha): 0 | Plant response rating (0 to 100 scale), Crabgrass, Large ([5]; Postemergence, 1000 g ai/ha): 0 | Plant response rating (0 to 100 scale), Crabgrass, Large ([5]; Preemergence, 1000 g ai/ha): 0 | Plant response rating (0 to 100 scale), Morningglory ([6]; Postemergence, 1000 g ai/ha): 0 | Plant response rating (0 to 100 scale), Morningglory ([6]; Preemergence, 1000 g ai/ha): 0 | Plant response rating (0 to 100 scale), Wheat ([7]; Postemergence, 1000 g ai/ha): 0 | Plant response rating (0 to 100 scale), Wheat ([7]; Preemergence, 1000 g ai/ha): 0

O=C(c1ccccc1)c1cn(CC(F)F)nc1-c1cc(Cl)cc(Cl)c1 [Compound 59]
Plant response rating (0 to 100 scale), Pigweed ([1]; Postemergence, 125 g ai/ha): 60 | Plant response rating (0 to 100 scale), Pigweed ([1]; Postemergence, 500 g ai/ha): 80 | Pigweed plant response rating (0 = no effect, 100 = complete control) ([1]; Preemergence, 125 g ai/ha): 0 | Plant response rating (0 to 100 scale), Pigweed ([1]; Preemergence, 500 g ai/ha): 30 | Plant response rating (0 to 100 scale), Corn (corn (Zea mays); Postemergence, 125 g ai/ha): 0 | Plant response rating (0 to 100 scale), Corn (corn (Zea mays); Postemergence, 500 g ai/ha): 0 | Corn plant response rating (0 = no effect, 100 = complete control) (corn (Zea mays); Preemergence, 125 g ai/ha): 0 | Plant response rating (0 to 100 scale), Corn (corn (Zea mays); Preemergence, 500 g ai/ha): 0 | Plant response rating (0 to 100 scale), Velvetleaf ([2]; Postemergence, 125 g ai/ha): 50 | Plant response rating (0 to 100 scale), Velvetleaf ([2]; Postemergence, 500 g ai/ha): 70 | Velvetleaf plant response rating (0 = no effect, 100 = complete control) ([2]; Preemergence, 125 g ai/ha): 0 | Plant response rating (0 to 100 scale), Velvetleaf ([2]; Preemergence, 500 g ai/ha): 40 | Plant response rating (0 to 100 scale), Foxtail, Giant ([3]; Postemergence, 125 g ai/ha): 0 | Plant response rating (0 to 100 scale), Foxtail, Giant ([3]; Postemergence, 500 g ai/ha): 0 | Foxtail, Giant plant response rating (0 = no effect, 100 = complete control) ([3]; Preemergence, 125 g ai/ha): 0 | Plant response rating (0 to 100 scale), Foxtail, Giant ([3]; Preemergence, 500 g ai/ha): 0 | Plant response rating (0 to 100 scale), Barnyardgrass ([4]; Postemergence, 125 g ai/ha): 0 | Plant response rating (0 to 100 scale), Barnyardgrass ([4]; Postemergence, 500 g ai/ha): 0 | Barnyardgrass plant response rating (0 = no effect, 100 = complete control) ([4]; Preemergence, 125 g ai/ha): 0 | Plant response rating (0 to 100 scale), Barnyardgrass ([4]; Preemergence, 500 g ai/ha): 0 | Plant response rating (0 to 100 scale), Crabgrass, Large ([5]; Postemergence, 125 g ai/ha): 0 | Plant response rating (0 to 100 scale), Crabgrass, Large ([5]; Postemergence, 500 g ai/ha): 0 | Crabgrass, Large plant response rating (0 = no effect, 100 = complete control) ([5]; Preemergence, 125 g ai/ha): 0 | Plant response rating (0 to 100 scale), Crabgrass, Large ([5]; Preemergence, 500 g ai/ha): 0 | Plant response rating (0 to 100 scale), Morningglory ([6]; Postemergence, 125 g ai/ha): 0 | Plant response rating (0 to 100 scale), Morningglory ([6]; Postemergence, 500 g ai/ha): 0 | Morningglory plant response rating (0 = no effect, 100 = complete control) ([6]; Preemergence, 125 g ai/ha): 0 | Plant response rating (0 to 100 scale), Morningglory ([6]; Preemergence, 500 g ai/ha): 0 | Plant response rating (0 to 100 scale), Wheat ([7]; Postemergence, 125 g ai/ha): 0 | Plant response rating (0 to 100 scale), Wheat ([7]; Postemergence, 500 g ai/ha): 0 | Wheat plant response rating (0 = no effect, 100 = complete control) ([7]; Preemergence, 125 g ai/ha): 0

Clc1cc(Cl)cc(-c2n[nH]cc2C2(c3ccccc3)SCCCS2)c1 [Compound 63]
Plant response rating (0 to 100 scale), Pigweed ([1]; Postemergence, 125 g ai/ha): 20 | Plant response rating (0 to 100 scale), Pigweed ([1]; Postemergence, 500 g ai/ha): 80 | Pigweed plant response rating (0 = no effect, 100 = complete control) ([1]; Preemergence, 125 g ai/ha): 0 | Plant response rating (0 to 100 scale), Pigweed ([1]; Preemergence, 500 g ai/ha): 60 | Plant response rating (0 to 100 scale), Corn (corn (Zea mays); Postemergence, 125 g ai/ha): 0 | Plant response rating (0 to 100 scale), Corn (corn (Zea mays); Postemergence, 500 g ai/ha): 0 | Corn plant response rating (0 = no effect, 100 = complete control) (corn (Zea mays); Preemergence, 125 g ai/ha): 0 | Plant response rating (0 to 100 scale), Corn (corn (Zea mays); Preemergence, 500 g ai/ha): 0 | Plant response rating (0 to 100 scale), Velvetleaf ([2]; Postemergence, 125 g ai/ha): 10 | Plant response rating (0 to 100 scale), Velvetleaf ([2]; Postemergence, 500 g ai/ha): 60 | Velvetleaf plant response rating (0 = no effect, 100 = complete control) ([2]; Preemergence, 125 g ai/ha): 0 | Plant response rating (0 to 100 scale), Velvetleaf ([2]; Preemergence, 500 g ai/ha): 0 | Plant response rating (0 to 100 scale), Foxtail, Giant ([3]; Postemergence, 125 g ai/ha): 0 | Plant response rating (0 to 100 scale), Foxtail, Giant ([3]; Postemergence, 500 g ai/ha): 0 | Foxtail, Giant plant response rating (0 = no effect, 100 = complete control) ([3]; Preemergence, 125 g ai/ha): 0 | Plant response rating (0 to 100 scale), Foxtail, Giant ([3]; Preemergence, 500 g ai/ha): 0 | Plant response rating (0 to 100 scale), Barnyardgrass ([4]; Postemergence, 125 g ai/ha): 0 | Plant response rating (0 to 100 scale), Barnyardgrass ([4]; Postemergence, 500 g ai/ha): 0 | Barnyardgrass plant response rating (0 = no effect, 100 = complete control) ([4]; Preemergence, 125 g ai/ha): 0 | Plant response rating (0 to 100 scale), Barnyardgrass ([4]; Preemergence, 500 g ai/ha): 0 | Plant response rating (0 to 100 scale), Crabgrass, Large ([5]; Postemergence, 125 g ai/ha): 0 | Plant response rating (0 to 100 scale), Crabgrass, Large ([5]; Postemergence, 500 g ai/ha): 0 | Crabgrass, Large plant response rating (0 = no effect, 100 = complete control) ([5]; Preemergence, 125 g ai/ha): 0 | Plant response rating (0 to 100 scale), Crabgrass, Large ([5]; Preemergence, 500 g ai/ha): 0 | Plant response rating (0 to 100 scale), Morningglory ([6]; Postemergence, 125 g ai/ha): 0 | Plant response rating (0 to 100 scale), Morningglory ([6]; Postemergence, 500 g ai/ha): 0 | Morningglory plant response rating (0 = no effect, 100 = complete control) ([6]; Preemergence, 125 g ai/ha): 0 | Plant response rating (0 to 100 scale), Morningglory ([6]; Preemergence, 500 g ai/ha): 0 | Plant response rating (0 to 100 scale), Wheat ([7]; Postemergence, 125 g ai/ha): 0 | Plant response rating (0 to 100 scale), Wheat ([7]; Postemergence, 500 g ai/ha): 0 | Wheat plant response rating (0 = no effect, 100 = complete control) ([7]; Preemergence, 125 g ai/ha): 0

CON=C(c1ccccc1)c1c[nH]nc1-c1cc(Cl)cc(Cl)c1 [Compound 64]
Plant response rating (0 to 100 scale), Pigweed ([1]; Postemergence, 1000 g ai/ha): 80 | Plant response rating (0 to 100 scale), Pigweed ([1]; Preemergence, 1000 g ai/ha): 0 | Plant response rating (0 to 100 scale), Corn (corn (Zea mays); Postemergence, 1000 g ai/ha): 0 | Plant response rating (0 to 100 scale), Corn (corn (Zea mays); Preemergence, 1000 g ai/ha): 0 | Plant response rating (0 to 100 scale), Velvetleaf ([2]; Postemergence, 1000 g ai/ha): 80 | Plant response rating (0 to 100 scale), Velvetleaf ([2]; Preemergence, 1000 g ai/ha): 0 | Plant response rating (0 to 100 scale), Foxtail, Giant ([3]; Postemergence, 1000 g ai/ha): 0 | Plant response rating (0 to 100 scale), Foxtail, Giant ([3]; Preemergence, 1000 g ai/ha): 0 | Plant response rating (0 to 100 scale), Barnyardgrass ([4]; Postemergence, 1000 g ai/ha): 0 | Plant response rating (0 to 100 scale), Barnyardgrass ([4]; Preemergence, 1000 g ai/ha): 0 | Plant response rating (0 to 100 scale), Crabgrass, Large ([5]; Postemergence, 1000 g ai/ha): 0 | Plant response rating (0 to 100 scale), Crabgrass, Large ([5]; Preemergence, 1000 g ai/ha): 0 | Plant response rating (0 to 100 scale), Morningglory ([6]; Postemergence, 1000 g ai/ha): 0 | Plant response rating (0 to 100 scale), Morningglory ([6]; Preemergence, 1000 g ai/ha): 0 | Plant response rating (0 to 100 scale), Wheat ([7]; Postemergence, 1000 g ai/ha): 0 | Plant response rating (0 to 100 scale), Wheat ([7]; Preemergence, 1000 g ai/ha): 0

— patent US10167262B2, “Herbicidal substituted 3-arylpyrazoles” (FMC CORPORATION, priority 2014, dated 2019)
